Data from US9321750B2, “ROR modulators and their uses” (INNOV17 LLC, priority 2012, dated 2016).

What was measured:
RORα LBD [1] = target: T1, RORα LBD (Homo sapiens (Human), UniProt P35398); test: TR-FRET co-repressor NCoR1-D2 interaction with RORα LBD; type: biochemical
Source text: (§1) The Time-Resolved Fluorescence Resonance Energy Transfer (TR-FRET) assay kit (Life Technologies) was used to measure compound efficacy to disrupt or enhance ligand-mediated interaction of the co-activator and co-repressor peptides with the purified GST-tagged (i) RORγ LBD or (ii) […]. The RORγ LBD and RORα LBD each have a basal level of interaction with the co-activator D22 or co-repressor NCoR1-D2 in the absence of ligand, thus it is possible to identify compounds that inhibit or induce RORγ and/or RORα co-activator/co-repressor interactions, thus determining RORα, RORγ, or RORα/RORγ compound selectivity. The assay was performed as per manufacturer's instructions and TR-FRET was assessed 2 and 20 hours post-assay initiation. Compounds were identified to (i) have no impact on either co-activator displacement or […] from the assessed LBD (ii) promote co-activator displacement from the assessed LBD (iii) promote co-repressor recruitment to the assessed LBD or (iv) concurrently promote co-activator displacement from the assessed LBD and co-repressor recruitment to the assessed LBD.

RORγ LBD [2] = target: T2, RORγ LBD (Homo sapiens (Human), UniProt P51449); test: TR-FRET co-repressor NCoR1-D2 interaction with RORγ LBD; type: biochemical
Source text: as §1

IL-17F = test: TH17 cytokine inhibition as measured by ELISA: IL-17F; type: cell-based; settings: 120 h; human TH17 cells, 5 days differentiation, ELISA of supernatant
Method: (§2) Peripheral blood mononuclear cells (PBMCs) were sourced from freshly prepared leukocyte enriched plasma (buffy coat) from healthy volunteers from which PBMCs were isolated by density gradient centrifugation using Ficoll-Paque™ PLUS (GE Healthcare). Naïve CD4+ T cells were isolated using the Naïve CD4+ T cell Isolation Kit II (Miltenyi Biotec) as per manufacturer's instructions. CD4+ T cells were plated at 5×10^4 cells/well in 96 well plates pre-coated with immobilized human (h)-αCD3 antibody (eBioscience) then differentiated to TH17 cells using h-αCD28, h-αIFNγ, h-αIL4, h-IL6, h-IL23, h-IL1β, h-TGFβ1 (eBioscience) and maintained in a cell culture incubator at 37° C. with 5% CO2 in TexMACS Medium (Miltenyi Biotec) supplemented with 1% Penicillin/Streptomycin (Lonza) over 5 days.
(§3) Human CD4+ T cells were differentiated to TH17 cells as described in the presence or absence of various concentrations of compounds in a final concentration of 0.1% DMSO in TexMACS medium. Supernatants were collected and stored at −20° C. until they were to be assayed for IL-17A, IL-17F, IL-17AF, IL-21 and/or IL-22 levels as determined by Ready-Set-Go ELISA kits (eBioscience) as per manufacturer's instructions. Endpoint absorbance was read at 450 nm and 570 nm according to manufacturer's instructions (eBioscience) using a microplate reader (Perkin Elmer). The percentage of cytokine inhibition was calculated with reference to DMSO treated cells and the IC50s were determined by GraphPad Prism software and presented in the table below.

RORα LBD [3] = target: T1, RORα LBD; test: TR-FRET co-activator D22 interaction with RORα LBD; type: biochemical
Source text: as §1

IL-22 = test: TH17 cytokine inhibition as measured by ELISA: IL-22; type: cell-based; settings: 120 h; human TH17 cells, 5 days differentiation, ELISA of supernatant
Method: as §2, §3

[4] = TH17 cell viability (Prestoblue); type: cell-based; parameters: concentration or dose not given beside the values; settings: human; percentage of DMSO treated cells; read-out: % viability of compound treated TH17 cells
Method: as §2
Cells were assayed for viability in the presence or absence of compound using Prestoblue® Cell Viability Reagent (Life Technologies) as per manufacturer's instructions after 30 minutes incubation of TH17 cells with reagent. Absorbance was measured at 570 nm and 600 nm using a microplate reader (Perkin Elmer) and data were analyzed as per manufacturer's instructions. Cell viability was expressed as a percentage of DMSO treated cells.

RORγ LBD [5] = target: T2, RORγ LBD; test: TR-FRET co-activator D22 interaction with RORγ LBD; type: biochemical
Source text: as §1

IL-17A = test: TH17 cytokine inhibition as measured by ELISA: IL-17A; type: cell-based; settings: 120 h; human TH17 cells, 5 days differentiation, ELISA of supernatant
Method: as §2, §3

TH17 cells = test: TH17 cellular proliferation (Prestoblue); type: cell-based; settings: Homo sapiens, 120 h; 3 μM compound, after 5 day TH17 differentiation, relative to DMSO treated TH17 cells; read-out: % change in TH17 cell number
Method: as §2
Cellular proliferation was assessed in the presence or absence of 3 μM compound using Prestoblue® Cell Viability Reagent (Life Technologies) as per manufacturer's instructions using absorbance as the output measured by a microplate reader (Perkin Elmer) after 30 minutes of incubation of cells and reagent. A standard curve developed by plotting varying cell numbers versus absorbance was used to assess differences in cellular proliferation between compound treated or untreated cells after the 5 day TH17 differentiation period.

[6] = 2 hr, read-out: RORα EC50 NCoR1-D2 co-repressor recruitment 2 hr
[7] = 20 hr, read-out: RORα EC50 NCoR1-D2 co-repressor recruitment 20 hr
[8] = 2 hr, read-out: RORγ EC50 NCoR1-D2 co-repressor recruitment 2 hr
[9] = 20 hr, read-out: RORγ EC50 NCoR1-D2 co-repressor recruitment 20 hr
[10] = 2 hr, read-out: RORα EC50 D22 co-activator displacement 2 hr
[11] = 20 hr, read-out: RORα EC50 D22 co-activator displacement 20 hr
[12] = 2 hr, read-out: RORγ EC50 D22 co-activator displacement 2 hr
[13] = 20 hr, read-out: RORγ EC50 D22 co-activator displacement 20 hr
[14] = 2 hr, co-activator recruitment (π), read-out: RORα EC50 D22 2 hr (demonstrates co-activator recruitment)
[15] = 20 hr, co-activator recruitment (π), read-out: RORα EC50 D22 20 hr (demonstrates co-activator recruitment)
[16] = 2 hr, co-activator recruitment (π), read-out: RORγ EC50 D22 2 hr (demonstrates co-activator recruitment)

T2 sequence (P51449 269-508): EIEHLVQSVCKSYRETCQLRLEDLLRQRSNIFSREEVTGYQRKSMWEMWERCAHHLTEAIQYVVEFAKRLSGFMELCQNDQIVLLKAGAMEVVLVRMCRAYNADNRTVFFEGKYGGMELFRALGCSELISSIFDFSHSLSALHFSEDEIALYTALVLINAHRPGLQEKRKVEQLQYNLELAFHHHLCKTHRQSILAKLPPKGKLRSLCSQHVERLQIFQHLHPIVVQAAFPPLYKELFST
T1 sequence (P35398 272-510): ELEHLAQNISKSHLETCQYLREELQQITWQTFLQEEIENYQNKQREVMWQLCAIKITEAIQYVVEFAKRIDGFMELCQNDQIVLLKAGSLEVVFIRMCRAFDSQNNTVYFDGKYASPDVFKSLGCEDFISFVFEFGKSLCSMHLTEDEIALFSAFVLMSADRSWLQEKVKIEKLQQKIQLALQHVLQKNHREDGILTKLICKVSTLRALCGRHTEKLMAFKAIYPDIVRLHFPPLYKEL

Compound | EC50 (RORα LBD [1]; [6]) | EC50 (RORα LBD [1]; [7]) | EC50 (RORγ LBD [2]; [8]) | EC50 (RORγ LBD [2]; [9]) | IC50 (IL-17F) | EC50 (RORα LBD [3]; [10]) | EC50 (RORα LBD [3]; [11]) | IC50 (IL-22) | EC50 (RORγ LBD [5]; [12]) | EC50 (RORγ LBD [5]; [13]) | IC50 (IL-17A) | EC50 (RORα LBD [1]; 20 hr, co-repressor displacement (Ω), read-out: RORα EC50 NCoR1-D2 20 hr (demonstrates co-repressor displacement)) | EC50 (RORα LBD [3]; [14]) | EC50 (RORα LBD [3]; [15]) | EC50 (RORγ LBD [5]; [16]) | EC50 (RORγ LBD [5]; 20 hr, co-activator recruitment (π), read-out: RORγ EC50 D22 20 hr (demonstrates co-activator recruitment)) | viability [4] | inhibition at 3 µM (TH17 cells)
CC(=O)Nc1ccc2c(c1)CCN2Cc1ccc(C(=O)Nc2ccccc2)cc1 [Example 15, 4-((5-acetamidoindolin-1-yl)methyl)-N-phenylbenzamide] | > 30 µM | > 30 µM | > 30 µM | > 30 µM | < 10 µM | > 30 µM | > 30 µM | < 10 µM | < 30 µM | < 30 µM | < 10 µM |  |  |  |  |  | > 80% | ≤ 50%
CC(=O)Nc1ccc2c(c1)CCN2Cc1ccc(C(=O)N(C)c2ccccc2)cc1 [Example 14, 4-((5-acetamidoindolin-1-yl)methyl)-N-methyl-N-phenylbenzamide] | > 30 µM | > 30 µM | > 30 µM | > 30 µM | < 10 µM | > 30 µM | > 30 µM | < 10 µM |  | > 30 µM | < 10 µM |  |  |  | < 30 µM |  | > 80% | 
CC(=O)Nc1ccc2c(c1)CCN2Cc1ccc(C(N)=O)cc1 [Example 11, 4-((5-acetamidoindolin-1-yl)methyl)benzamide] | > 30 µM | > 30 µM | > 30 µM | > 30 µM | > 10 µM |  |  | > 10 µM |  | > 30 µM | > 10 µM |  | < 30 µM | < 30 µM | < 30 µM |  | > 80% | ≤ 50%
CC(=O)Nc1ccc2c(c1)CCN2Cc1ccc(C(=O)N(C)C)cc1 [Example 13, 4-((5-acetamidoindolin-1-yl)methyl)-N,N-dimethylbenzamide] | > 30 µM | > 30 µM | > 30 µM | > 30 µM | > 10 µM | > 30 µM | > 30 µM | > 10 µM | > 30 µM | > 30 µM | > 10 µM |  |  |  |  |  | > 80% | ≤ 50%
CC(=O)Nc1ccc2c(c1)CCN2Cc1ccc(C(C)C)cc1 [Example 8, N-(1-(4-isopropylbenzyl)indolin-5-yl)acetamide] | > 30 µM | > 30 µM | > 30 µM | > 30 µM | < 10 µM | > 30 µM | > 30 µM | < 10 µM | < 30 µM | < 30 µM | < 10 µM |  |  |  |  |  | > 80% | ≤ 50%
CC(=O)Nc1ccc2c(ccn2Cc2ccc(C(O)(C(F)(F)F)C(F)(F)F)cc2)c1 [Example 16, N-(1-(4-(1,1,1,3,3,3-hexafluoro-2-hydroxypropan-2-yl)benzyl)-1H-indol-5-yl)acetamide] | > 30 µM | < 30 µM | > 30 µM | > 30 µM | < 10 µM | < 30 µM | > 30 µM | < 10 µM | < 30 µM | < 30 µM | < 10 µM |  |  |  |  |  | > 80% | ≤ 50%

Now from value to compound, other results behind:

EC50 (RORα LBD [1]; [6]) | EC50 (RORα LBD [1]; [7]) | EC50 (RORγ LBD [2]; [8]) | EC50 (RORγ LBD [2]; [9]) | IC50 (IL-17F) | EC50 (RORα LBD [3]; [10]) | EC50 (RORα LBD [3]; [11]) | IC50 (IL-22) | EC50 (RORγ LBD [5]; [12]) | EC50 (RORγ LBD [5]; [13]) | IC50 (IL-17A) | EC50 (RORα LBD [1]; 20 hr, co-repressor displacement (Ω), read-out: RORα EC50 NCoR1-D2 20 hr (demonstrates co-repressor displacement)) | EC50 (RORα LBD [3]; [14]) | EC50 (RORα LBD [3]; [15]) | EC50 (RORγ LBD [5]; [16]) | EC50 (RORγ LBD [5]; 20 hr, co-activator recruitment (π), read-out: RORγ EC50 D22 20 hr (demonstrates co-activator recruitment)) | Compound | viability [4] | inhibition at 3 µM (TH17 cells)
> 30 µM | > 30 µM | > 30 µM | > 30 µM | < 10 µM | > 30 µM | > 30 µM | < 10 µM | > 30 µM | > 30 µM | < 10 µM |  |  |  |  |  | CC(=O)Nc1ccc2c(c1)CCN2Cc1ccc(-c2cc(C)n[nH]2)cc1 [Example 9, N-(1-(4-(3-methyl-1H-pyrazol-5-yl)benzyl)indolin-5-yl)acetamide] | > 80% | 
> 30 µM |  | > 30 µM | > 30 µM | > 10 µM |  |  | > 10 µM |  |  | > 10 µM | < 30 µM | < 30 µM | < 30 µM | < 30 µM | < 30 µM | CNC(=O)c1ccc(CN2CCc3cc(NC(C)=O)ccc32)cc1 [Example 12, 4-((5-acetamidoindolin-1-yl)methyl)-N-methylbenzamide] | > 80% | ≤ 50%
> 30 µM | > 30 µM | > 30 µM | > 30 µM | < 10 µM | > 30 µM | > 30 µM | < 10 µM | > 30 µM | < 30 µM | < 10 µM |  |  |  |  |  | CC(=O)Nc1ccc2c(c1)CCN2Cc1ccc(C(F)(F)F)cc1 [Example 7, N-(1-(4-(trifluoromethyl)benzyl)indolin-5-yl)acetamide] | > 80% | ≤ 50%
> 30 µM | > 30 µM | > 30 µM | > 30 µM | > 10 µM | < 30 µM | < 30 µM | < 10 µM | > 30 µM | > 30 µM | > 10 µM |  |  |  |  |  | CC(=O)Nc1ccc2c(c1)CCN2Cc1ccc(C2(O)CCC2)cc1 [Example 10, N-(1-(4-(1-hydroxycyclobutyl)benzyl)indolin-5-yl)acetamide] | > 80% | 
